Measurements as given in ChEMBL document CHEMBL1201862, “PubChem BioAssay data set” (2004).
Calls of active or inactive are those of the source.

Experiments:
[1] = biological target: T1, Orexin receptor type 2 (Homo sapiens, UniProt O43614); test: Counterscreen assay for antagonists of the orexin 1 receptor (OX1R; HCRTR1): Fluorescence-based cell-based dose response assay for antagonists of the orexin 2 receptor (OX2R; HCRTR2), run by assay provider.; format: functional
[2] = (§1) Counterscreen for antagonists of the orexin 1 receptor (OX1R; HCRTR1): Fluorescence-based cell-based high throughput dose response assay to identify antagonists of the parental CHO cell line. [Related pubchem assays (depositor defined):AID434989, AID435008, AID463079, AID485270, AID492963, AID492964, AID492965, AID493232, AID504699, AID504701]; format: functional
[3] = test system: CHO-K1; test: as §1, with “Homogeneous time resolved fluorescence (HTRF)-based” for “Fluorescence-based”, “cell-based” for “cell-based high throughput”, “CHO-K1” for “CHO”; format: functional; conditions: Cricetulus griseus;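 also: potency for inhibition of ATP-stimulated IP1 production as antagonists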
[4] = biological target: T2, Orexin/Hypocretin receptor type 1 (Homo sapiens, UniProt O43613); test: (§2) Fluorescence-based cell-based high throughput dose response assay for antagonists of the orexin 1 receptor (OX1R; HCRTR1). [Related pubchem assays (depositor defined):AID434989, AID435008, AID463079, AID485270, AID492963, AID492964, AID492965, AID493232, AID504717, AID504718]; format: functional
T2 sequence (O43613 whole entry): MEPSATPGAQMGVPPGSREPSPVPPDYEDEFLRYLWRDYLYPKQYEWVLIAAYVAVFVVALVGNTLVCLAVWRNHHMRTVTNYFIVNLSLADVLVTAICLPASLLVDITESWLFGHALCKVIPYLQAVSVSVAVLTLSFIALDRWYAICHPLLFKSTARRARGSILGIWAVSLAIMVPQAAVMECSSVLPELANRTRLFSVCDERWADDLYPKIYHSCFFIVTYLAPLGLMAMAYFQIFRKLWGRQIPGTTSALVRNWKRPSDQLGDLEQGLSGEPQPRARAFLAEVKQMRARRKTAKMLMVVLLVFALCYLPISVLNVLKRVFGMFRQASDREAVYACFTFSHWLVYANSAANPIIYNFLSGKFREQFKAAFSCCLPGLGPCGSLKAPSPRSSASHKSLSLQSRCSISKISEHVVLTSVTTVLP

[5] = biological target: T2, Orexin/Hypocretin receptor type 1; test: as §2, with “Homogeneous Time Resolved Fluorescence (HTRF)-based” for “Fluorescence-based”; format: functional
[6] = biological target: T1, Orexin receptor type 2; test: Counterscreen assay for antagonists of the orexin 1 receptor (OX1R; HCRTR1): Homogeneous Time Resolved Fluorescence (HTRF)-based cell-based dose response assay for antagonists of the orexin 2 receptor (OX2R; HCRTR2), run by assay provider.; format: functional
[7] = biological target: T3, Endoribonuclease toxin MazF (Escherichia coli K-12, UniProt P0AE70); test: fluorescent RNA oligo signal without MazF, dose response, counter-screen for MazEF activator project, biochemical, fluorescence, single-stranded RNase substrate (AID 588502); format: functional
T3 sequence (P0AE70 whole entry): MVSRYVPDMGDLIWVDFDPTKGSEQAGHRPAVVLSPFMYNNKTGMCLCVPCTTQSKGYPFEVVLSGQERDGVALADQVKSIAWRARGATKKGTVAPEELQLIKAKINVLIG

[8] = biological target: T3, Endoribonuclease toxin MazF; test: MazF endoribonuclease activators, SAR follow-up, biochemical, fluorescence, single-stranded RNA substrate (AID 588603); format: functional
[9] = test system: MEF; test: SAR analysis of small molecule cytotoxicity of MazEF TA System activators in embryonic fibroblast (MEF) cells. [Related pubchem assays (depositor defined):AID504720, AID504743]; format: functional; conditions: Mus musculus
[10] = biological target: T3, Endoribonuclease toxin MazF; test: MazF toxin RNase activators, dose response, biochemical, fluorescence, single-stranded RNA substrate, uHTS hits (AID 588481); format: functional
[11] = biological target: T3, Endoribonuclease toxin MazF; test: SAR analysis of small molecule activators of the MazEF TA System via a fluorescence-based single-stranded RNase assay counterscreen. [Related pubchem assays (depositor defined):AID504720, AID504743]; format: functional
[12] = test system: CHO; test: cytotoxicity in TLR9-MyD88 CHO cells, dose response, cytotoxicity control for TLR9-MyD88 binding inhibitor project, cell-based, luminescence (AID 588339); format: functional, hamster; conditions: Cricetulus griseus;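 also: CHO cells stably coexpressing TLR9 and MyD88 fusions from primary screen; compound exposure lasted 48 hours before viability readout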
[13] = biological target: Beta Lactamase (Pseudomonas aeruginosa, UniProt Q932Y6); test: beta-lactamase reporter inhibitor potency, dose response, artefact control for TLR9-MyD88 binding inhibitor project, BLA reporter cells, FRET fluorescence (AID 588341); format: cell-based;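 also: cell based assay in CHO-K1 cells stably expressing beta-lactamase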
Beta Lactamase, sequence (Q932Y6 whole entry): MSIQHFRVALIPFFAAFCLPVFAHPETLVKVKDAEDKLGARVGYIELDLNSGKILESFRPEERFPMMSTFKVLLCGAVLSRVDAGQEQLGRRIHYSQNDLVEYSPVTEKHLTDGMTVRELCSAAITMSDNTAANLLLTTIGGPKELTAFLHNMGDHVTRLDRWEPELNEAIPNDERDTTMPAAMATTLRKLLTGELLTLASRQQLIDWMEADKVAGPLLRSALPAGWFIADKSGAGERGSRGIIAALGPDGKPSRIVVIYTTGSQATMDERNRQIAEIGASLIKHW

[14] = biological target: T4, High affinity choline transporter 1 (Homo sapiens, UniProt Q9GZV3); test: CHT activators, dose response, cell-based, 10-point CRC, membrane potential dye (AID 602376); format: functional
T4 sequence (Q9GZV3 whole entry): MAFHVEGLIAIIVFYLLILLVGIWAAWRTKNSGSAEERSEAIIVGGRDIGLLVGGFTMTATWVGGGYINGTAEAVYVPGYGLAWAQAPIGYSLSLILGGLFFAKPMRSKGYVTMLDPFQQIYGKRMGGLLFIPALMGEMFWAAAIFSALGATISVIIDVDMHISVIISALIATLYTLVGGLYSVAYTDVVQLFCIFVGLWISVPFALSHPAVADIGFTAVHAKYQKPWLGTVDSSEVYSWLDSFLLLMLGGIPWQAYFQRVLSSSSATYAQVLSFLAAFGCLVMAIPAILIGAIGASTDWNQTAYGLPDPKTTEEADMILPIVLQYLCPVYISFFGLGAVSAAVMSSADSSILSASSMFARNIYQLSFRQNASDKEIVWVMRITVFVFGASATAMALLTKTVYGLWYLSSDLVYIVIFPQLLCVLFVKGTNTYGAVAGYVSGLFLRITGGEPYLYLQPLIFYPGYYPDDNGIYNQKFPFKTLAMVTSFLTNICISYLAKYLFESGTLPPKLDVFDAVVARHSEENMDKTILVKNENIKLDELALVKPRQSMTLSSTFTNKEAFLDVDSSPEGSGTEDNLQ

[15] = biological target: Troponin, cardiac muscle (Homo sapiens, UniProt P19429+P45379+P63316); test: Fluorescence-based biochemical high throughput dose response assay for activators of the calcium sensitivity of cardiac Regulated Thin Filaments (RTF). [Related pubchem assays (depositor defined):AID493008, AID493018, AID504382, AID504383]; format: protein-complex assay
[16] = biological target: T5, Sentrin-specific protease 6 (Homo sapiens, UniProt Q9GZR1); test: SAR Analysis of small molecule inhibitors of Sentrin-specific protease 6 (SENP6) using a Luminescent assay. [Related pubchem assays (depositor defined):AID2582, AID2599]; format: functional
T5 sequence (Q9GZR1 whole entry): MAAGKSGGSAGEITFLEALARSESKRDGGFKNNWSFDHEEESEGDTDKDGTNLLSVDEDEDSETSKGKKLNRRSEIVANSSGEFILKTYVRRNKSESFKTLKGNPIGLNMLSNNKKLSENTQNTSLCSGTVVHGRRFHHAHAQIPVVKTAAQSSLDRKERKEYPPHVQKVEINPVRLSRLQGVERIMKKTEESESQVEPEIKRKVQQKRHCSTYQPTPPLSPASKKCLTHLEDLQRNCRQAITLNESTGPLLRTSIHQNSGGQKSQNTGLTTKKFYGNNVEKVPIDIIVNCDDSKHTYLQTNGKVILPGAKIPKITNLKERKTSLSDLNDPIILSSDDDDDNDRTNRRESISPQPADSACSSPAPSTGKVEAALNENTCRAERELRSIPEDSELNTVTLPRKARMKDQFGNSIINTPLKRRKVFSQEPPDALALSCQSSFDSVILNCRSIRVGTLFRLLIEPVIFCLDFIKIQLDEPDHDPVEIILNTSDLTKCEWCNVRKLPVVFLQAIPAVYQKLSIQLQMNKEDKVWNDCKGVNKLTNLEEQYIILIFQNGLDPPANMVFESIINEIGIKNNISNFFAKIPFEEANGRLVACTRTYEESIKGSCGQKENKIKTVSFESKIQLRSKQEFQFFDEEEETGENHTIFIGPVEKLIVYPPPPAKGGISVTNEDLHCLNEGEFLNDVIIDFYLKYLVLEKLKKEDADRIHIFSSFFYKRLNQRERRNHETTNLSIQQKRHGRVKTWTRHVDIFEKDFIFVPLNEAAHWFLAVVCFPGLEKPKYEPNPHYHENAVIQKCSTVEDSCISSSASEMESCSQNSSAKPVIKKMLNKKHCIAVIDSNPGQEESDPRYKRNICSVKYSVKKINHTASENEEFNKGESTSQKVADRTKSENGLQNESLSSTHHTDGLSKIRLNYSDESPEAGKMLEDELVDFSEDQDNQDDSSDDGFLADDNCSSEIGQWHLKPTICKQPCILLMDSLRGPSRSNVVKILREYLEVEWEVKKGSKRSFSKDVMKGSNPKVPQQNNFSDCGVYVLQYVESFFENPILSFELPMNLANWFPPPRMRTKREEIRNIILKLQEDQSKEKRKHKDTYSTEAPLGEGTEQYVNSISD

[17] = biological target: T6, Sentrin-specific protease 7 (Homo sapiens, UniProt Q9BQF6); test: SENP7 protease inhibitors, SAR follow-up, biochemical, luminescence (AID 504497); format: functional
T6 sequence (Q9BQF6 whole entry): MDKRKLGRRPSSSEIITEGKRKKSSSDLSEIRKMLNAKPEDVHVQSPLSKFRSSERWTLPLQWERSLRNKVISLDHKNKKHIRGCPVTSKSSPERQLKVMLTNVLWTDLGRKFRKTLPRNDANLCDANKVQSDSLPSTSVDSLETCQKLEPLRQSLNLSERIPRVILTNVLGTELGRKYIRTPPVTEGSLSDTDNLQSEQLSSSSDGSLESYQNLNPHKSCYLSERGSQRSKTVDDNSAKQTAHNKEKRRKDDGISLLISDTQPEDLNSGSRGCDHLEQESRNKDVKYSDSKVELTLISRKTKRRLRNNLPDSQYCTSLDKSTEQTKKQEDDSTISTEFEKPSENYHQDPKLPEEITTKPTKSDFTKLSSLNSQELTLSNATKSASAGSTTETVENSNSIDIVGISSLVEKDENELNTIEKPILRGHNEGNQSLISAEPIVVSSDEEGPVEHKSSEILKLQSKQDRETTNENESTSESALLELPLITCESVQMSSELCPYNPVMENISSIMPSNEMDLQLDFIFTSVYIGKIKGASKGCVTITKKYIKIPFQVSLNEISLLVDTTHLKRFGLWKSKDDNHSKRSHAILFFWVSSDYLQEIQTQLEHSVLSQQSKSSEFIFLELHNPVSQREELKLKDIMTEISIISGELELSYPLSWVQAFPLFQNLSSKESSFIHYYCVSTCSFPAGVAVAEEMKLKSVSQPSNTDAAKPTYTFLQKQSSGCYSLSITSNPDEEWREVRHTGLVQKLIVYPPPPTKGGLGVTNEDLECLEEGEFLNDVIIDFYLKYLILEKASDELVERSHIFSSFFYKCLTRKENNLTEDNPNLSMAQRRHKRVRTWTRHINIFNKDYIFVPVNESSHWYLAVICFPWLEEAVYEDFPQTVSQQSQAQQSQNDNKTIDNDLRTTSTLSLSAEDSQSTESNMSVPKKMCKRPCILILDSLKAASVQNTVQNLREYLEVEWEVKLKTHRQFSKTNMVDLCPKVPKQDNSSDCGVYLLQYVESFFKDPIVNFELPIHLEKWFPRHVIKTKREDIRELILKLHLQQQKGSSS

[18] = biological target: T7, Sentrin-specific protease 8 (Homo sapiens, UniProt Q96LD8); test: SENP8 protease inhibitors, SAR follow-up, biochemical, luminescence (AID 504501); format: functional
T7 sequence (Q96LD8 whole entry): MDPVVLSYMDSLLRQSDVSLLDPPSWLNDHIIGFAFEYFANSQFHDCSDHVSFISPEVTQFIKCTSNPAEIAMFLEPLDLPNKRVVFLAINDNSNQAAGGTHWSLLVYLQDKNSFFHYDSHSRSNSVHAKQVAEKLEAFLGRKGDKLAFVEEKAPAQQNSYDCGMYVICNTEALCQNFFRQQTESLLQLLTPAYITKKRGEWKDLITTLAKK

[19] = biological target: T8, Caspase-3 (Homo sapiens, UniProt P42574); test: SAR Analysis of small molecule inhibitors of Sentrin-specific proteases (SENPs) using a Caspase-3 Selectivity assay. [Related pubchem assays (depositor defined):AID2540, AID2599, AID434973, AID489001]; format: functional
T8 sequence (P42574 whole entry): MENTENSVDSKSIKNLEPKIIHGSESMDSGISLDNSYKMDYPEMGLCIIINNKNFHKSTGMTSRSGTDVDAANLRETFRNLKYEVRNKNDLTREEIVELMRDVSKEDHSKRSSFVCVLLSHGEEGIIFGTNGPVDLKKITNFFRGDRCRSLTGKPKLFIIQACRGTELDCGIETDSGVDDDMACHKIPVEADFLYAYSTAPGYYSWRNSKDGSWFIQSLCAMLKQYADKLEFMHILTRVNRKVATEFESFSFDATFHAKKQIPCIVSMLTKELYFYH

[20] = biological target: DNA dC->dU-editing enzyme APOBEC-3A (Homo sapiens, UniProt P31941); test: SAR analysis of small molecule inhibitors of APOBEC3A DNA Deaminase via a fluorescence-based single-stranded DNA deaminase assay.; format: functional; conditions: read-out: IC50_Mean
DNA dC->dU-editing enzyme APOBEC-3A, sequence (P31941 whole entry): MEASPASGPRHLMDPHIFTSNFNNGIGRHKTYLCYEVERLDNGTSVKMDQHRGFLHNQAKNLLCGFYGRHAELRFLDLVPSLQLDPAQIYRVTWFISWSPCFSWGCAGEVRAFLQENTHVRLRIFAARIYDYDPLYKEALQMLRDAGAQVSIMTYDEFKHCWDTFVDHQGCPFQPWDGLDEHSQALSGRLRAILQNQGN

[21] = biological target: DNA dC->dU-editing enzyme APOBEC-3G (Homo sapiens, UniProt Q9HC16); test: APOBEC3G deaminase inhibitors, SAR follow-up, biochemical, fluorescence, single-stranded DNA substrate (AID 602136); format: functional; conditions: read-out: IC50_Mean
DNA dC->dU-editing enzyme APOBEC-3G, sequence (Q9HC16 whole entry): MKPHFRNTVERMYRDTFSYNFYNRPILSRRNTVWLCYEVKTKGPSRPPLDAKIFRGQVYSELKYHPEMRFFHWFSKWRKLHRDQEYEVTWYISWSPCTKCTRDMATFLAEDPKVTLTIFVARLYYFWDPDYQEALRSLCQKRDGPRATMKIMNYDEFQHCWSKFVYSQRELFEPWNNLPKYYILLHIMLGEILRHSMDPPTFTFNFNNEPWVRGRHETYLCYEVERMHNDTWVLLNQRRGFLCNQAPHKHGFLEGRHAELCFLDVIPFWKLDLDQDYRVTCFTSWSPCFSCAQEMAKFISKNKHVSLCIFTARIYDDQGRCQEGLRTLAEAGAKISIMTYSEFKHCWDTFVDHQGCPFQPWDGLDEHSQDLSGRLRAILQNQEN

[22] = THP-1 cell cytotoxicity, cytotoxicity control, set 6 (AID 602433); format: functional; conditions: Mycobacterium tuberculosis
[23] = Vero cell cytotoxicity, cytotoxicity control for M. tuberculosis inhibitor project, purified and synthesized samples, set 8 (AID 602431); format: functional; conditions: Mycobacterium tuberculosis

T1 sequence (O43614 whole entry): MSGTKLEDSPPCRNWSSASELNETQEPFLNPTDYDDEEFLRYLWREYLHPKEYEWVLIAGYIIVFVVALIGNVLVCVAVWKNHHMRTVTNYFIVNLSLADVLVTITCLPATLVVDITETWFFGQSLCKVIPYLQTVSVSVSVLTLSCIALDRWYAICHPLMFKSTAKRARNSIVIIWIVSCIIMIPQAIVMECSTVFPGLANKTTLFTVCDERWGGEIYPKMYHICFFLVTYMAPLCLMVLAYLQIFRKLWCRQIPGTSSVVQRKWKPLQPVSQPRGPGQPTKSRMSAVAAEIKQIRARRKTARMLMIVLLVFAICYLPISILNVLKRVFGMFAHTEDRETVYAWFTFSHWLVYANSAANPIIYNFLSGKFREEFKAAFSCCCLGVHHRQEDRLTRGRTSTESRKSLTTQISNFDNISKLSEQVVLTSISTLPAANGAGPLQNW

CCOc1ccccc1N1CCN(C(=O)c2ccc(S(=O)(=O)Nc3ccccc3)cc2)CC1
IC50 [1]: 42.5 µM (inactive) | IC50 [2]: 25.6 µM (inactive) | IC50 [3]: > 66.2 µM (inactive) | IC50 [4]: 15.1 µM (inactive) | IC50 [5]: 1.12 µM (active) | IC50 [6]: > 50 µM (inactive)

N=c1c2c(ncn1CCCO)Oc1cc(O)ccc1C2c1ccccc1 (stereo not drawn)
EC50 [7]: > 99 µM (inactive) | EC50 [8]: 6.2 µM (active) | CC50 [9]: > 99 µM (inactive) | EC50 [10]: 6.82 µM (active) | EC50 [11]: 78.8 µM (inactive)

CCN(CC)c1ccc(/C=C/C(=O)C2C(=O)C=C(C)OC2=O)cc1 (stereo not drawn)
IC50 [12]: > 49.7 µM (inactive) | IC50 [13]: 4.88 µM (active)

CC(C)CN1CCN(Cc2cccn2-c2ccc(Cl)cn2)CC1CCO (stereo not drawn)
EC50 [14]: 8.24 µM (active) | EC50 [15]: > 71.5 µM (inactive)

Oc1ccc(Cl)cc1/C=N/Nc1cc(N2CCCC2)nc(N2CCCC2)n1
IC50 [16]: > 99 µM (inactive) | IC50 [17]: > 99 µM (inactive) | IC50 [18]: > 99 µM (inactive) | IC50 [19]: > 99 µM (inactive)

O=C(CCN1CCSC1=O)Nc1cc(Cl)ccc1N1CCOCC1
IC50 [20]: > 99 µM (inactive) | IC50 [21]: > 99 µM (inactive)

CC1CCCN(c2c(NCc3ccc(C(=O)N4CC=C(c5ccccc5)CC4)cc3)c(=O)c2=O)C1 (stereo not drawn)
CC50 [22]: 17.4 µM (active) | CC50 [23]: 67.2 µM (active)
